In PubChem BioAssay (NCI) one finds TGI and GI50 data, which are given here for 17 compounds.

Among the test systems are A549 NSCLC; ACHN renal; HOP-92 NSCLC; IGROV1 ovarian; M14 melanoma; NCI-H226 lung; SF-539 CNS; SK-MEL-28 melanoma; SK-OV-3 ovarian; UACC-257 melanoma.
Common to all, as to assay: NCI-60 cell line screen, 48 h

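Tested at 5 concentrations; 48 h exposure; 96-well plates; endpoints linearly interpolated, else capped at highest concentration. GI50: concentration for 50% inhibition of growth. TGI: total growth inhibition.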

On to `CS(=O)(=O)OCCN1CCN(C(=O)c2cccc3c(Nc4ccc(S(=O)(=O)N=C(N)N)cc4)c4ccccc4nc23)CC1`, for which the TGI with A549 NSCLC, in the assay with ACHN renal, in the assay on HOP-92 NSCLC, in the assay on IGROV1 ovarian, in the assay with M14 melanoma and in the assay with NCI-H226 lung was > 100 µM throughout. Further, the TGI with SF-539 CNS, in the assay on SK-MEL-28 melanoma, in the assay on SK-OV-3 ovarian and in the assay with UACC-257 melanoma was > 100 µM in each case.

For the compound `O=C(Nc1cccs1)c1c(O)[nH]c(=S)[nH]c1=O`, the TGI in the assay on A549 NSCLC, with ACHN renal, with HOP-92 NSCLC, in the assay with IGROV1 ovarian, with M14 melanoma and in the assay on NCI-H226 lung was > 100 µM each time. Further, the TGI in the assay with SF-539 CNS, with SK-MEL-28 melanoma, in the assay on SK-OV-3 ovarian and with UACC-257 melanoma was > 100 µM in each case.

With `COc1ccc(NC(=O)C(=O)Cc2nc3ccc([N+](=O)[O-])cc3[nH]c2=O)c(OC)c1`, the TGI with A549 NSCLC, with ACHN renal, in the assay with HOP-92 NSCLC, in the assay on IGROV1 ovarian, in the assay with M14 melanoma and in the assay on NCI-H226 lung was > 100 µM each time. Moreover, the TGI with SF-539 CNS, with SK-MEL-28 melanoma, in the assay with SK-OV-3 ovarian and in the assay on UACC-257 melanoma was > 100 µM in each case.

`COc1cc(/C=C\c2ccccc2)cc(OC)c1OC`: the TGI in the assay on A549 NSCLC was > 80.3 µM; in the assay with ACHN renal it was > 78.5 µM; with HOP-92 NSCLC it was 21.8 µM; in the assay on IGROV1 ovarian, > 100 µM; with M14 melanoma, 22.1 µM; with NCI-H226 lung it was 24.1 µM. The values for the TGI in the assay on SF-539 CNS, in the assay with SK-MEL-28 melanoma and in the assay with UACC-257 melanoma were 7.47 µM, > 100 µM and 41.3 µM, respectively.

As for `O=C(c1ccc2ccccc2c1)c1c(C(F)(F)F)n([O-])c2cc(F)c(F)cc2[n+]1=O`, the GI50 in the assay on A549 NSCLC is 4.33 µM; in the assay on ACHN renal, 2.03 µM; in the assay with HOP-92 NSCLC it was 1.84 µM; with M14 melanoma, 2.53 µM; in the assay on NCI-H226 lung it was 4.86 µM; with SF-539 CNS, 2.21 µM. Moreover, the GI50 in the assay on SK-MEL-28 melanoma is 4.22 µM; in the assay with SK-OV-3 ovarian, 14.5 µM; in the assay on UACC-257 melanoma, 2.53 µM. Moreover, the TGI in the assay with A549 NSCLC worked out at 16.4 µM; with ACHN renal it was 4.16 µM; in the assay with HOP-92 NSCLC, 3.46 µM; with M14 melanoma it was 7.11 µM; in the assay on NCI-H226 lung, 44.2 µM; with SF-539 CNS, 3.98 µM. For the same compound, the TGI with SK-MEL-28 melanoma was 12.7 µM; in the assay on SK-OV-3 ovarian, 27.9 µM; in the assay with UACC-257 melanoma, 6.45 µM.

Take `CCCc1c(CC)c(=N)c2ccccc2n1C`: the GI50 is > 100 µM with A549 NSCLC; > 100 µM with ACHN renal; 30.5 µM in the assay with HOP-92 NSCLC; > 100 µM in the assay on IGROV1 ovarian; 93.6 µM in the assay on NCI-H226 lung; > 100 µM in the assay on SF-539 CNS. In addition, the results for the GI50 with SK-MEL-28 melanoma, in the assay on SK-OV-3 ovarian and with UACC-257 melanoma were 69.2 µM, > 100 µM and 47.3 µM, respectively. Further, the TGI in the assay with A549 NSCLC, in the assay with ACHN renal, with HOP-92 NSCLC, in the assay with IGROV1 ovarian, in the assay on NCI-H226 lung and in the assay on SF-539 CNS was > 100 µM in each case. Also, the TGI in the assay on SK-MEL-28 melanoma, in the assay with SK-OV-3 ovarian and with UACC-257 melanoma was > 100 µM each time.

With `O=Nc1c(-c2c(O)[nH]c3ccc([N+](=O)[O-])cc23)[nH]c2ccc(O)cc12`, the GI50 was 0.674 µM in the assay on A549 NSCLC; 0.261 µM in the assay on ACHN renal; 2.78 µM with HOP-92 NSCLC; 0.312 µM in the assay with IGROV1 ovarian; 0.496 µM in the assay with M14 melanoma; 0.383 µM in the assay with NCI-H226 lung. Further, the GI50 was 0.258 µM with SF-539 CNS, 0.435 µM with SK-MEL-28 melanoma and 0.647 µM with UACC-257 melanoma. Moreover, the TGI was > 60.6 µM in the assay with A549 NSCLC; > 100 µM in the assay with ACHN renal; > 29.1 µM in the assay on HOP-92 NSCLC; > 100 µM with IGROV1 ovarian; > 87 µM in the assay with M14 melanoma; > 100 µM with NCI-H226 lung. For the same compound, the results for the TGI in the assay with SF-539 CNS, in the assay with SK-MEL-28 melanoma and in the assay on UACC-257 melanoma were 0.827 µM, > 100 µM and > 83.9 µM, respectively.

As to `FC(F)(F)c1cc(-c2nnc3n2N=C(N2CCCC2)CS3)cc(C(F)(F)F)c1`, the GI50 in the assay with ACHN renal was 10 µM; in the assay on HOP-92 NSCLC, 25.9 µM; in the assay on IGROV1 ovarian it was > 50 µM; with M14 melanoma, > 50 µM; in the assay on NCI-H226 lung it was 24.6 µM; in the assay with SF-539 CNS it was 34 µM. In addition, the GI50 is > 50 µM with SK-MEL-28 melanoma, 14.3 µM in the assay with SK-OV-3 ovarian and > 50 µM with UACC-257 melanoma. The TGI in the assay with ACHN renal, in the assay with HOP-92 NSCLC, in the assay with IGROV1 ovarian, in the assay on M14 melanoma, with NCI-H226 lung and with SF-539 CNS was > 50 µM throughout. Also, the TGI in the assay with SK-MEL-28 melanoma, with SK-OV-3 ovarian and in the assay with UACC-257 melanoma was > 50 µM in each case.

Turning to `COc1ccc2c(c1)/C(=C\c1cccnc1)C(=O)N2`, the GI50 in the assay on A549 NSCLC is 18.2 µM; in the assay on ACHN renal it was 18.5 µM; in the assay on HOP-92 NSCLC it was 26.6 µM; with IGROV1 ovarian, 32.2 µM; with M14 melanoma, 31 µM; in the assay with NCI-H226 lung it was 7.38 µM. In addition, the GI50 in the assay with SK-MEL-28 melanoma was 23.4 µM; with SK-OV-3 ovarian it was 20.3 µM; in the assay on UACC-257 melanoma, 14.8 µM. Moreover, the TGI was 56.7 µM in the assay with A549 NSCLC; 38.9 µM with ACHN renal; 69.7 µM in the assay on HOP-92 NSCLC; > 100 µM with IGROV1 ovarian; 83.8 µM in the assay with M14 melanoma; 23.6 µM in the assay on NCI-H226 lung. The TGI with SK-MEL-28 melanoma is 64.7 µM; in the assay on SK-OV-3 ovarian, 46.5 µM; in the assay on UACC-257 melanoma it was 31.8 µM.

On to `CO/C(=N\N=C\c1cccc(Cl)c1)c1ccncc1`, for which the TGI in the assay with A549 NSCLC, with ACHN renal, with HOP-92 NSCLC, with M14 melanoma, with NCI-H226 lung and in the assay on UACC-257 melanoma was > 10 µM each time.

With `NC1CCCCC1.[O]=[Ge].[O]=[Ge].[O]=[Ge][OH].[O]=[Ge][OH]`, the TGI with A549 NSCLC, in the assay on ACHN renal, in the assay on HOP-92 NSCLC, in the assay on IGROV1 ovarian, with M14 melanoma and in the assay on NCI-H226 lung was > 100 µM in each case. Moreover, the TGI in the assay with SF-539 CNS, in the assay with SK-MEL-28 melanoma and with UACC-257 melanoma was > 100 µM in each case. Besides, the GI50 in the assay with ACHN renal, with M14 melanoma and in the assay with NCI-H226 lung was > 100 µM in each case.

With `C=CC1[C@H]2COC(C)(C)O[C@@H]2CC(=O)C1(C)C` (stereo partly drawn), the TGI in the assay with A549 NSCLC, in the assay on ACHN renal, in the assay on HOP-92 NSCLC, with M14 melanoma, with NCI-H226 lung and with SF-539 CNS was > 100 µM each time. Moreover, the TGI with SK-MEL-28 melanoma and in the assay on UACC-257 melanoma was > 100 µM each time.

With `CCCCCCCNc1nc(C(=O)OCC)ncc1-c1ccc(C(F)(F)F)cc1`, the GI50 in the assay on A549 NSCLC is > 100 µM; in the assay on ACHN renal, 32 µM; in the assay with HOP-92 NSCLC it was 24.8 µM; in the assay on IGROV1 ovarian, 24.7 µM; in the assay with M14 melanoma, 35.8 µM; in the assay on NCI-H226 lung it was 30.5 µM. Also, the GI50 with SK-MEL-28 melanoma is 66.2 µM; in the assay on SK-OV-3 ovarian, 39.1 µM; in the assay with UACC-257 melanoma, 26.6 µM. The TGI with A549 NSCLC was > 100 µM; in the assay on ACHN renal it was > 100 µM; with HOP-92 NSCLC it was > 100 µM; with IGROV1 ovarian, 70.9 µM; with M14 melanoma, > 100 µM; in the assay with NCI-H226 lung, > 100 µM. Moreover, the TGI with SK-MEL-28 melanoma is > 100 µM; with SK-OV-3 ovarian, > 100 µM; in the assay with UACC-257 melanoma, 75.6 µM.

Regarding `COc1ccccc1/C=C1\CCC(CCN(C)C)(C2=CCCC2)C1=O` (stereo not drawn), the TGI in the assay on A549 NSCLC was determined as 64.4 µM; in the assay on ACHN renal, 34.1 µM; in the assay with HOP-92 NSCLC, 46.6 µM; with IGROV1 ovarian, 28.6 µM; with M14 melanoma, 31.3 µM; in the assay with NCI-H226 lung, 40.5 µM. The TGI stood at 29.5 µM in the assay with SF-539 CNS, 32.7 µM in the assay on SK-MEL-28 melanoma and 31 µM with UACC-257 melanoma.

Turning to `CC(C)C1(O)C(c2ccccc2)=C(c2ccccc2)C(c2ccccc2)=C1c1ccccc1`, the TGI in the assay with A549 NSCLC was 54.6 µM; with HOP-92 NSCLC, 50.2 µM; with IGROV1 ovarian, > 100 µM; in the assay with M14 melanoma it was 22.4 µM; in the assay on NCI-H226 lung it was 31.6 µM; in the assay with SF-539 CNS, 28.6 µM. Further, the TGI with SK-OV-3 ovarian is > 100 µM; in the assay on UACC-257 melanoma, 26.2 µM.

Regarding `CCc1cccc(C(C)C)c1NC(=O)C(=O)CC(=O)c1c(C)n([O-])c2ccccc2[n+]1=O`, the TGI in the assay on A549 NSCLC, with ACHN renal, in the assay with HOP-92 NSCLC, in the assay with IGROV1 ovarian, with M14 melanoma and in the assay with NCI-H226 lung was > 100 µM in each case. In addition, the TGI in the assay with SF-539 CNS, with SK-MEL-28 melanoma and in the assay on SK-OV-3 ovarian was > 100 µM in each case.

Consider `NCCCOCC(=O)O`, for which the TGI in the assay on A549 NSCLC, with ACHN renal, in the assay with HOP-92 NSCLC, in the assay with IGROV1 ovarian, in the assay on NCI-H226 lung and in the assay on SF-539 CNS was > 100 µM throughout. Besides, the TGI with SK-MEL-28 melanoma, with SK-OV-3 ovarian and with UACC-257 melanoma was > 100 µM in each case.
